Patent US5288709A, “Erythromycin derivatives” (priority 1991, dated 1994)
In brackets after ≈: the same amount, converted by molar mass. Several values for one entry are separate records, joined by “and”; a condition that tells them apart may be missing. Identical values can stand only once. Like-named read-outs stand apart in the source and are kept apart here.

Experiments:
[1] = tested on: Staphylococcus aureus CMX 686B; assay: In-vitro antimicrobial activity primary screen (agar dilution MIC); format: cell-based; settings: CMX686B, BHI agar, 20-24 h, read-out: MIC
Procedure, shortened: (§1)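 Agar dilution in Brain Heart Infusion agar with twelve successive compound dilutions; plates inoculated with 1:100 diluted cultures by replicator and incubated 20-24 h at 35-37 °C. MIC is the lowest concentration giving no growth, slight haze or sparse isolated colonies versus compound-free control; erythromycin A plate run as reference.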

[2] = tested on: Staphylococcus aureus CMX 503A; assay: as above; format: cell-based; settings: BHI agar, 20-24 h
Procedure, shortened: as §1

[3] = tested on: Staphylococcus aureus CMX 553; assay: as above; format: cell-based; settings: BHI agar, 20-24 h
Procedure, shortened: as §1

[4] = tested on: Staphylococcus aureus (NCTC 10649); assay: In-vivo acute mouse protection assay; design: species or system Staphylococcus aureus; female Swiss albino mice; settings: dosed 1 and 5 h post-infection, observed 7 days
Procedure: An acute mouse protection test was conducted on ten mice with each of three concentrations of selected compounds of the invention. Each concentration was a four-fold dilution of the previous concentration. The initial concentration will vary with the microorganism with which the mouse is challenged.
The acute mouse protection test was conducted on female, Swiss albino mice, 18-20 grams in weight. […] To check the potency of the inoculum, a titration of the indicated test organism was carried out in control animals. The titration determines the LD50 for a particular microorganism. The treatment groups of animals were dosed orally, by gavage, or subcutaneously with the test compounds at 1 and 5 hours post-infection and observed for 7 days. The ED50 were calculated using the mortality data collected.

[5] = tested on: Micrococcus luteus ATCC 9341; assay: In-vitro antimicrobial activity primary screen (agar dilution MIC); format: cell-based; settings: BHI agar, 20-24 h
Procedure, shortened: (§2)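 Twelve plates of successive aqueous compound dilutions in Brain Heart Infusion agar were spot-inoculated by Steers replicator with 1:100 culture dilutions (1:10 for slow growers such as Streptococcus) and incubated at 35-37° C for 20-24 hours. MIC was the lowest concentration giving no growth, slight haze or sparse colonies.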

[6] = tested on: Enterobacter aerogenes ATCC 13048; assay: as above; format: cell-based; settings: Klebsiella aerogenes, ATCC13048, 24 h
Procedure, shortened: as §2

Acinetobacter SP CMX 669 = assay: as above; format: cell-based; settings: Acinetobacter SP CMX 669, BHI agar, 20-24 h
Procedure, shortened: as §2

[7] = tested on: Staphylococcus aureus ATCC 6538P; assay: as above; format: cell-based; settings: BHI agar, 20-24 h
Procedure, shortened: as §2

[8] = tested on: Pseudomonas aeruginosa K799/61; assay: as above; format: cell-based
Procedure, shortened: as §2

[9] = tested on: Streptococcus agalactiae CMX 508; assay: as above; format: cell-based; settings: Streptococcus agalactiae, CMX508, 24 h, BHI agar, 20-24 h
Procedure, shortened: as §2

Pseudomonas cepacia 2961 = assay: as above; format: cell-based; settings: BHI agar, 20-24 h
Procedure, shortened: as §2

[10] = tested on: Pseudomonas aeruginosa BMH10; assay: as above; format: cell-based; settings: Pseudomonas aeruginosa, BMH10, 24 h, BHI agar, 20-24 h
Procedure, shortened: as §2

Escherichia coli H560 = assay: as above; format: cell-based; settings: Escherichia coli, H560, 24 h, Escherichia coli H560; BHI agar, 20-24 h
Procedure, shortened: as §2

[11] = tested on: Pseudomonas aeruginosa K799/WT; assay: as above; format: cell-based; settings: Pseudomonas aeruginosa, K799/WT, 24 h
Procedure, shortened: as §2

[12] = tested on: Enterococcus faecium ATCC 8043; assay: as above; format: cell-based; settings: Enterococcus faecium, ATCC8043, 24 h
Procedure, shortened: as §2

[13] = tested on: Providencia stuartii CMX 640; assay: as above; format: cell-based; settings: Providencia stuartii, CMX640, 24 h
Procedure, shortened: as §2

[14] = tested on: Staphylococcus aureus 45 RAR2; assay: as above; format: cell-based; settings: Staphylococcus aureus, 45RAR2, 24 h, BHI agar, 20-24 h
Procedure, shortened: as §2

[15] = tested on: Staphylococcus epidermidis 3519; assay: as above; format: cell-based; settings: BHI agar, 20-24 h
Procedure, shortened: as §2

Escherichia coli JUHL = assay: as above; format: cell-based; settings: Escherichia coli, 24 h, Escherichia coli JUHL; BHI agar, 20-24 h
Procedure, shortened: as §2

[16] = tested on: Streptococcus bovis A5169; assay: as above; format: cell-based; settings: Streptococcus equinus, A5169, 24 h, BHI agar, 20-24 h
Procedure, shortened: as §2

[17] = tested on: Staphylococcus aureus A5177; assay: as above; format: cell-based; settings: Staphylococcus aureus, A5177, 24 h, Staphylococcus aureus A5177; BHI agar, 20-24 h
Procedure, shortened: as §2

[18] = tested on: Streptococcus pyrogenes 2548 INDUC; assay: as above; format: cell-based; settings: BHI agar, 20-24 h
Procedure, shortened: as §2

Escherichia coli DC-2 = assay: as above; format: cell-based; settings: Escherichia coli DC-2, BHI agar, 20-24 h
Procedure, shortened: as §2

Escherichia coli SS = assay: as above; format: cell-based; settings: BHI agar, 20-24 h
Procedure, shortened: as §2

[19] = tested on: Pseudomonas aeruginosa A5007; assay: as above; format: cell-based; settings: Pseudomonas aeruginosa, A5007, 24 h
Procedure, shortened: as §2

[20] = tested on: Micrococcus luteus ATCC 4698; assay: as above; format: cell-based; settings: BHI agar, 20-24 h
Procedure, shortened: as §2

[21] = tested on: Streptococcus pyrogenes EES61; assay: as above; format: cell-based; settings: BHI agar, 20-24 h
Procedure, shortened: as §2

Staphylococcus aureus 45 = assay: as above; format: cell-based; settings: BHI agar, 20-24 h, read-out: MIC
Procedure, shortened: as §2

[22] = tested on: Klebsiella pneumoniae ATCC 8045; assay: as above; format: cell-based; settings: Klebsiella pneumoniae, ATCC8045, 24 h
Procedure, shortened: as §2

[23] = Staphylococcus aureus, CMX503A, 24 h, read-out: MIC
[24] = Staphylococcus aureus, CMX553, 24 h, read-out: MIC
[25] = Staphylococcus aureus, ATCC6538P, 24 h
[26] = Burkholderia cepacia, 2961, 24 h
[27] = Micrococcus luteus, ATCC4698, 24 h

## CC[C@H]1OC(=O)[C@H](C)[C@@H](O[C@H]2C[C@@](C)(OC)[C@@H](O)[C@H](C)O2)[C@H](C)[C@@H](O[C@@H]2O[C@H](C)C[C@H](N(C)C)[C@H]2O)[C@](C)(O)C[C@@H](C)[C@@H]2O[C@@]1(C)[C@@H](O)[C@H]2C [Example 4, (9S,11S)-9-Deoxo-12-deoxy-9,12-epoxyerythromycin A]
[1]
  MIC: 0.2 µg/mL (≈ 0.279 µM)
[2]; [23]
  MIC: 0.2 µg/mL (≈ 0.279 µM)
[3]; [24]
  MIC: 0.2 µg/mL (≈ 0.279 µM)
[4]; Staphylococcus aureus, NCTC10649, 168 h, oral, read-out: ED50
  ED50: 55 mg/kg
[4]; Staphylococcus aureus, NCTC10649, sc, 168 h, subcutaneous, read-out: ED50
  ED50: 22.6 mg/kg
[5]; Micrococcus luteus, ATCC9341, 24 h
  MIC: 0.05 µg/mL (≈ 0.0696 µM)
[6]; Enterobacter aerogenes ATCC 13048, BHI agar, 20-24 h
  MIC: 50 µg/mL (≈ 69.6 µM)
Acinetobacter SP CMX 669; Acinetobacter, SPCMX669, 24 h
  MIC: 3.1 µg/mL (≈ 4.32 µM)
[7]; [25]
  MIC: 0.2 µg/mL (≈ 0.279 µM)
[8]; Pseudomonas aeruginosa K799/61, BHI agar, 20-24 h, read-out: MIC
  MIC: 0.39 µg/mL (≈ 0.543 µM)
[9]
  MIC: 0.05 µg/mL (≈ 0.0696 µM)
Pseudomonas cepacia 2961; [26]
  MIC: > 100 µg/mL
[10]
  MIC: 50 µg/mL (≈ 69.6 µM)
Escherichia coli H560
  MIC: 25 µg/mL (≈ 34.8 µM)
[11]; Pseudomonas aeruginosa K799/WT, BHI agar, 20-24 h
  MIC: 100 µg/mL (≈ 139 µM)
[12]
  MIC: 0.1 µg/mL (≈ 0.139 µM)
[13]
  MIC: > 100 µg/mL
[14]
  MIC: 0.39 µg/mL (≈ 0.543 µM)
[15]; read-out: MIC
  MIC: 0.2 µg/mL (≈ 0.279 µM)
Escherichia coli JUHL
  MIC: 25 µg/mL (≈ 34.8 µM)
[16]
  MIC: 0.02 µg/mL (≈ 0.0279 µM)
[17]
  MIC: 3.1 µg/mL (≈ 4.32 µM)
[18]; Streptococcus, 2548INDUC, 24 h
  MIC: 3.1 µg/mL (≈ 4.32 µM)
Escherichia coli DC-2; Escherichia coli, DC2, 24 h
  MIC: 50 µg/mL (≈ 69.6 µM)
Escherichia coli SS; Escherichia coli, 24 h
  MIC: 0.2 µg/mL (≈ 0.279 µM)
[19]
  MIC: > 100 µg/mL
[20]; [27]
  MIC: 0.1 µg/mL (≈ 0.139 µM)
[21]; read-out: MIC
  MIC: 0.01 µg/mL (≈ 0.0139 µM)
Staphylococcus aureus 45
  MIC: 0.2 µg/mL (≈ 0.279 µM)

## CC[C@H]1OC(=O)[C@H](C)[C@@H](O[C@H]2C[C@@](C)(OC)[C@@H](O)[C@H](C)O2)[C@H](C)[C@@H](O[C@@H]2O[C@H](C)C[C@H](N(C)C)[C@H]2O)[C@](C)(O)C[C@@H](C)C(=O)[C@H](C)[C@@H](O)[C@]1(C)O [Std, Erythromycin A, reference compound]
[1]
  MIC: 0.2 µg/mL (≈ 0.273 µM)
[2]
  MIC: 0.1 microgram/mL
[2]; [23]
  MIC: 0.2 µg/mL (≈ 0.273 µM)
[3]
  MIC: 0.1 microgram/mL
[3]; [24]
  MIC: 0.2 µg/mL (≈ 0.273 µM)
[4]; Staphylococcus aureus, NCTC10649, sc, 168 h, subcutaneous
  ED50: 12.9 mg/kg
[4]; subcutaneous, 10080 min
  ED50: 8.3 mg/kg and 11.6 mg/kg
[5]
  MIC: 0.02 microgram/mL
[6]
  MIC: 100 µg/mL (≈ 136 µM)
Acinetobacter SP CMX 669
  MIC: 3.1 microgram/mL
Acinetobacter SP CMX 669; Acinetobacter, SPCMX669, 24 h
  MIC: 6.2 µg/mL (≈ 8.45 µM)
[7]
  MIC: 0.1 microgram/mL
[7]; [25]
  MIC: 0.2 µg/mL (≈ 0.273 µM)
[22]
  MIC: 100 µg/mL (≈ 136 µM)
[8]; Pseudomonas aeruginosa K799/61, BHI agar, 20-24 h
  MIC: 1.56 microgram/mL
[8]; Pseudomonas aeruginosa, K799/61, 24 h
  MIC: 0.78 µg/mL (≈ 1.06 µM)
Pseudomonas cepacia 2961
  MIC: 100 microgram/mL
Pseudomonas cepacia 2961; [26]
  MIC: > 100 µg/mL
Escherichia coli H560
  MIC: 25 µg/mL (≈ 34.1 µM)
[11]
  MIC: 100 µg/mL (≈ 136 µM)
[12]
  MIC: 0.05 µg/mL (≈ 0.0681 µM)
[13]
  MIC: > 100 µg/mL
[15]
  MIC: 0.1 microgram/mL
[15]; Staphylococcus epidermidis, 3519, 24 h
  MIC: 0.2 µg/mL (≈ 0.273 µM)
Escherichia coli JUHL
  MIC: 25 µg/mL (≈ 34.1 µM)
[16]
  MIC: 0.02 µg/mL (≈ 0.0273 µM)
[18]
  MIC: 1.56 microgram/mL
[18]; Streptococcus, 2548INDUC, 24 h
  MIC: 3.1 µg/mL (≈ 4.22 µM)
Escherichia coli DC-2
  MIC: 25 microgram/mL
Escherichia coli SS
  MIC: 0.39 microgram/mL
Escherichia coli SS; Escherichia coli, 24 h
  MIC: 0.2 µg/mL (≈ 0.273 µM)
[19]
  MIC: > 100 µg/mL
[20]
  MIC: 0.2 microgram/mL
[20]; [27]
  MIC: 0.1 µg/mL (≈ 0.136 µM)
[21]; Streptococcus, EES61, 24 h
  MIC: 0.02 µg/mL (≈ 0.0273 µM)
